Assay results as given in BindingDB's records for doi:10.1124/jpet.103.051797 (Institut De Recherches Servier, 2003).

Tests used:
[1] = target: 5-hydroxytryptamine receptor 2A (Rattus norvegicus, UniProt P14842)
[2] = target: 5-hydroxytryptamine receptor 2B (Homo sapiens, UniProt P41595)
[3] = target: T1, 5-hydroxytryptamine receptor 2C (Sus scrofa, UniProt K7GSR7)
T1 sequence (K7GSR7 whole entry): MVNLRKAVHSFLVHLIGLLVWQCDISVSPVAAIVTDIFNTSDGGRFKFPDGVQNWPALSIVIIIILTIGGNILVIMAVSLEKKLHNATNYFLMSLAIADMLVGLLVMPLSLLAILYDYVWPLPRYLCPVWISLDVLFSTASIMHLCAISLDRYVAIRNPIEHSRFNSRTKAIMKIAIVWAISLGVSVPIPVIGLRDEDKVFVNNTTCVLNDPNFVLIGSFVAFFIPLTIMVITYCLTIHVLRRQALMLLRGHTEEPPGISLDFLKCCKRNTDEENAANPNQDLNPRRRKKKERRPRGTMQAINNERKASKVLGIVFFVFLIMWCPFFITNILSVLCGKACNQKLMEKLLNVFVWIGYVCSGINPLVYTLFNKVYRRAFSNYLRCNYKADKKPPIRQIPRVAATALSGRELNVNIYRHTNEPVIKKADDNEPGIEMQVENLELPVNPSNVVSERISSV

Chain of 5-hydroxytryptamine receptor 2A (P14842 whole entry): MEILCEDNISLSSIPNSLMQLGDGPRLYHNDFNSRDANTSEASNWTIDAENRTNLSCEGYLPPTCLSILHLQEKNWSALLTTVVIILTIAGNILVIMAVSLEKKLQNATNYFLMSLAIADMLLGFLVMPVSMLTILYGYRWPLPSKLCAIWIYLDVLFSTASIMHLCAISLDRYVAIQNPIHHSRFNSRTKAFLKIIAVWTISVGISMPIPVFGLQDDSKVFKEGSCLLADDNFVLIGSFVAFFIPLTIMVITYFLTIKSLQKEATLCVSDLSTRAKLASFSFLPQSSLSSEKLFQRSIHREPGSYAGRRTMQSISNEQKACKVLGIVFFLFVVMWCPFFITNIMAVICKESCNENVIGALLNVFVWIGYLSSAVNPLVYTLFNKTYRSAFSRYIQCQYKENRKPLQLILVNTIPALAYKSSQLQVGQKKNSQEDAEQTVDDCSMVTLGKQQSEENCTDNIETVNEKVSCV
Chain of 5-hydroxytryptamine receptor 2B (P41595 whole entry): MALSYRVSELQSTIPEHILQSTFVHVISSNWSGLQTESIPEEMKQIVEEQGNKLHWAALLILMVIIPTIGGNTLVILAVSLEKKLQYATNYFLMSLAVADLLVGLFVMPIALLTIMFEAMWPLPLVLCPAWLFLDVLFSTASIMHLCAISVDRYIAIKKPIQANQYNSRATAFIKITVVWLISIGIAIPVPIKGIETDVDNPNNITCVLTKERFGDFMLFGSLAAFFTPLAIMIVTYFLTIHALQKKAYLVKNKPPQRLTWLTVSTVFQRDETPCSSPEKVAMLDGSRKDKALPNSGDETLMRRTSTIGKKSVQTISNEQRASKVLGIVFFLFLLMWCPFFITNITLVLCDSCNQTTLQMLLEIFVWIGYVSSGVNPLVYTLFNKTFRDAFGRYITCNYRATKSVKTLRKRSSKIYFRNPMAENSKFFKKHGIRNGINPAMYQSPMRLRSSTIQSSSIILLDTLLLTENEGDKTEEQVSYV

SMILES | Ki [1] | Ki [2] | Ki [3]
COc1ccc2cccc(CCNC(C)=O)c2c1 [S 20098] | > 10000 nM | 257 nM | 407 nM
COc1ccc2[nH]cc(CCNC(C)=O)c2c1 | > 10000 nM | – | > 10000 nM
